Experimental data taken from US7396837B2, “Antitumoral analogs of lamellarins” (Pharma Mar, S.A.U., priority 2002, dated 2008).

Assays:
Type in all cases: cell-based
LoVo = experiment: SRB colorimetric cell growth inhibition assay, LoVo; settings: Homo sapiens, LoVo; for GI50: GI=growth inhibition, read-out: GI50 LOVO; for CC50: cell killing (cytotoxic effect), read-out: LC50 LOVO; for IC (TGI): total growth inhibition (cytostatic effect), read-out: TGI LOVO
Summary of the method: (§1)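 Quantitation uses the sulforhodamine B reaction on cells exposed to sample for the whole assay period; results (mean ± SD, n = 3 wells) yield GI, TGI and LC.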

A-549 = experiment: SRB colorimetric cell growth inhibition assay, A-549; settings: Homo sapiens, A549, A-549; for GI50: GI=growth inhibition, read-out: GI50 A-549; for CC50: cell killing (cytotoxic effect), read-out: LC50 A-549; for IC (TGI): total growth inhibition (cytostatic effect), read-out: TGI A-549
Summary of the method: as §1

IGROV-ET = experiment: SRB colorimetric cell growth inhibition assay, IGROV-ET (ET-743 resistant); settings: Homo sapiens, IGROV-ET; for GI50: GI=growth inhibition, read-out: GI50 IGROV-ET; for CC50: cell killing (cytotoxic effect), read-out: LC50 IGROV-ET; for IC (TGI): total growth inhibition (cytostatic effect), read-out: TGI IGROV-ET
Summary of the method: as §1

PANC-1 = experiment: SRB colorimetric cell growth inhibition assay, PANC-1; settings: Homo sapiens, PANC-1, PANC-1; for GI50: GI=growth inhibition, read-out: GI50 PANC-1; for CC50: cell killing (cytotoxic effect), read-out: LC50 PANC-1; for IC (TGI): total growth inhibition (cytostatic effect), read-out: TGI PANC-1
Summary of the method: as §1

K-562 = experiment: SRB colorimetric cell growth inhibition assay, K-562; settings: Homo sapiens, K562, K-562; for GI50: GI=growth inhibition, read-out: GI50 K-562; for CC50: cell killing (cytotoxic effect), read-out: LC50 K-562; for IC (TGI): total growth inhibition (cytostatic effect), read-out: TGI K-562
Summary of the method: as §1

SK-BR-3 = experiment: SRB colorimetric cell growth inhibition assay, SK-BR-3; settings: Homo sapiens, SK-BR-3, SK-BR-3; for GI50: GI=growth inhibition, read-out: GI50 SK-BR-3; for CC50: cell killing (cytotoxic effect), read-out: LC50 SK-BR-3; for IC (TGI): total growth inhibition (cytostatic effect), read-out: TGI SK-BR-3
Summary of the method: as §1

LoVo-Dox = experiment: SRB colorimetric cell growth inhibition assay, LoVo-Dox (MDR); settings: Homo sapiens, LOVO-DOX; for GI50: GI=growth inhibition, read-out: GI50 LOVO-DOX; for CC50: cell killing (cytotoxic effect), read-out: LC50 LOVO-DOX; for IC (TGI): total growth inhibition (cytostatic effect), read-out: TGI LOVO-DOX
Summary of the method: as §1

HeLa = experiment: SRB colorimetric cell growth inhibition assay, HeLa; settings: Homo sapiens, HeLa; for GI50: GI=growth inhibition, read-out: GI50 HELA; for CC50: cell killing (cytotoxic effect), read-out: LC50 HELA; for IC (TGI): total growth inhibition (cytostatic effect), read-out: TGI HELA
Summary of the method: as §1

SK-MEL-28 = experiment: SRB colorimetric cell growth inhibition assay, SK-MEL-28; settings: Homo sapiens, SK-MEL-28, MEL-28; for GI50: GI=growth inhibition, read-out: GI50 MEL-28; for CC50: cell killing (cytotoxic effect), read-out: LC50 MEL-28; for IC (TGI): total growth inhibition (cytostatic effect), read-out: TGI MEL-28
Summary of the method: as §1

HT-29 = experiment: SRB colorimetric cell growth inhibition assay, HT-29; settings: Homo sapiens, HT-29, HT-29; for GI50: GI=growth inhibition, read-out: GI50 HT-29; for CC50: cell killing (cytotoxic effect), read-out: LC50 HT-29; for IC (TGI): total growth inhibition (cytostatic effect), read-out: TGI HT-29
Summary of the method: as §1

HeLa-APL = experiment: SRB colorimetric cell growth inhibition assay, HeLa-APL (aplidine resistant); settings: Homo sapiens, HELA-APL; for GI50: GI=growth inhibition, read-out: GI50 HELA-APL; for CC50: cell killing (cytotoxic effect), read-out: LC50 HELA-APL; for IC (TGI): total growth inhibition (cytostatic effect), read-out: TGI HELA-APL
Summary of the method: as §1

DU-145 = experiment: SRB colorimetric cell growth inhibition assay, DU-145; settings: Homo sapiens, DU-145, DU-145; for GI50: GI=growth inhibition, read-out: GI50 DU-145; for CC50: cell killing (cytotoxic effect), read-out: LC50 DU-145; for IC (TGI): total growth inhibition (cytostatic effect), read-out: TGI DU-145
Summary of the method: as §1

LNCaP = experiment: SRB colorimetric cell growth inhibition assay, LNCaP; settings: Homo sapiens, LNCaP, LN-caP; for GI50: GI=growth inhibition, read-out: GI50 LN-caP; for CC50: cell killing (cytotoxic effect), read-out: LC50 LN-caP; for IC (TGI): total growth inhibition (cytostatic effect), read-out: TGI LN-caP
Summary of the method: as §1

IGROV = experiment: SRB colorimetric cell growth inhibition assay, IGROV; settings: Homo sapiens, IGROV; for GI50: GI=growth inhibition, read-out: GI50 IGROV; for CC50: cell killing (cytotoxic effect), read-out: LC50 IGROV; for IC (TGI): total growth inhibition (cytostatic effect), read-out: TGI IGROV
Summary of the method: as §1

Work on `COc1cc(-c2c3c4cc(OC)c(OC(=O)[C@@H](N)Cc5ccccc5)cc4oc(=O)c3n3ccc4cc(OC(=O)[C@@H](N)Cc5ccccc5)c(OC)cc4c23)ccc1OC(=O)[C@@H](N)Cc1ccccc1` [Compound 204] yielded a GI50 (LoVo) of 113 nM, a CC50 (LoVo) of 463 nM and an IC (TGI) (LoVo) of 228 nM. The GI50 (A-549) was 31.1 nM, the CC50 (A-549) was 9520 nM and the IC (TGI) (A-549) was 1000 nM. It also gave a GI50 (IGROV-ET) of 18 nM, a CC50 (IGROV-ET) of 9520 nM and an IC (TGI) (IGROV-ET) of 109 nM. For the same molecule, the GI50 (PANC-1) was 44.7 nM, the CC50 (PANC-1) was 392 nM and the IC (TGI) (PANC-1) was 171 nM. For the same molecule, the GI50 (K-562) was 7.48 nM, the CC50 (K-562) was 596 nM and the IC (TGI) (K-562) was 203 nM. The GI50 (SK-BR-3) was 151 nM, the CC50 (SK-BR-3) was 1090 nM and the IC (TGI) (SK-BR-3) was 390 nM. The GI50 (LoVo-Dox) was 160 nM, the CC50 (LoVo-Dox) was 9520 nM and the IC (TGI) (LoVo-Dox) was 6340 nM. For the same molecule, the GI50 (HeLa) was 36.9 nM, the CC50 (HeLa) was 452 nM and the IC (TGI) (HeLa) was 172 nM. The GI50 (SK-MEL-28) was 26.8 nM, the CC50 (SK-MEL-28) was 7140 nM and the IC (TGI) (SK-MEL-28) was 243 nM. The GI50 (HT-29) was 1400 nM, the CC50 (HT-29) was 9520 nM and the IC (TGI) (HT-29) was 3800 nM. It also gave a GI50 (HeLa-APL) of 88.8 nM, a CC50 (HeLa-APL) of 594 nM and an IC (TGI) (HeLa-APL) of 235 nM. It also gave a GI50 (DU-145) of 5.63 nM, a CC50 (DU-145) of 44.7 nM and an IC (TGI) (DU-145) of 17.4 nM. For the same molecule, the GI50 (LNCaP) was 79 nM, the CC50 (LNCaP) was 597 nM and the IC (TGI) (LNCaP) was 229 nM. For the same molecule, the GI50 (IGROV) was 23.8 nM, the CC50 (IGROV) was 526 nM and the IC (TGI) (IGROV) was 113 nM.

`COc1cc(-c2c3c4cc(OC)c(OC(=O)C[C@H](N)C(C)C)cc4oc(=O)c3n3ccc4cc(OC(=O)C[C@H](N)C(C)C)c(OC)cc4c23)ccc1OC(=O)C[C@H](N)C(C)C` [Compound 206] gave a GI50 (LoVo) of 167 nM, a CC50 (LoVo) of 660 nM and an IC (TGI) (LoVo) of 331 nM. It also gave a GI50 (A-549) of 55.8 nM, a CC50 (A-549) of 2770 nM and an IC (TGI) (A-549) of 410 nM. It also gave a GI50 (IGROV-ET) of 29.7 nM, a CC50 (IGROV-ET) of 589 nM and an IC (TGI) (IGROV-ET) of 190 nM. For the same molecule, the GI50 (PANC-1) was 137 nM, the CC50 (PANC-1) was 6250 nM and the IC (TGI) (PANC-1) was 1270 nM. It also gave a GI50 (K-562) of 31.1 nM, a CC50 (K-562) of 4230 nM and an IC (TGI) (K-562) of 1110 nM. It also gave a GI50 (SK-BR-3) of 70.1 nM, a CC50 (SK-BR-3) of 2890 nM and an IC (TGI) (SK-BR-3) of 451 nM. The GI50 (LoVo-Dox) was 294 nM, the CC50 (LoVo-Dox) was 6370 nM and the IC (TGI) (LoVo-Dox) was 1010 nM. The GI50 (HeLa) was 50.5 nM, the CC50 (HeLa) was 1930 nM and the IC (TGI) (HeLa) was 330 nM. For the same molecule, the GI50 (SK-MEL-28) was 44 nM, the CC50 (SK-MEL-28) was 1040 nM and the IC (TGI) (SK-MEL-28) was 169 nM. The GI50 (HT-29) was 1320 nM, the CC50 (HT-29) was 10500 nM and the IC (TGI) (HT-29) was 10500 nM. The GI50 (HeLa-APL) was 83.4 nM, the CC50 (HeLa-APL) was 2820 nM and the IC (TGI) (HeLa-APL) was 523 nM. It also gave a GI50 (DU-145) of 21.8 nM, a CC50 (DU-145) of 72.5 nM and an IC (TGI) (DU-145) of 39.9 nM. For the same molecule, the GI50 (LNCaP) was 75.2 nM, the CC50 (LNCaP) was 3330 nM and the IC (TGI) (LNCaP) was 475 nM. For the same molecule, the GI50 (IGROV) was 52.7 nM, the CC50 (IGROV) was 589 nM and the IC (TGI) (IGROV) was 194 nM.
